Test results as given in article PMC12036557, “Functional Imaging of CYP3A4 at Multiple Dimensions Using an AI‐Driven High Performance Fluorogenic Substrate” (Small (Weinheim an Der Bergstrasse, Germany), 2025).

target: T1, CYP3A4 (Homo sapiens, UniProt P08684); experiment: in vitro; details: pH 7.4
T1 sequence (P08684 whole entry): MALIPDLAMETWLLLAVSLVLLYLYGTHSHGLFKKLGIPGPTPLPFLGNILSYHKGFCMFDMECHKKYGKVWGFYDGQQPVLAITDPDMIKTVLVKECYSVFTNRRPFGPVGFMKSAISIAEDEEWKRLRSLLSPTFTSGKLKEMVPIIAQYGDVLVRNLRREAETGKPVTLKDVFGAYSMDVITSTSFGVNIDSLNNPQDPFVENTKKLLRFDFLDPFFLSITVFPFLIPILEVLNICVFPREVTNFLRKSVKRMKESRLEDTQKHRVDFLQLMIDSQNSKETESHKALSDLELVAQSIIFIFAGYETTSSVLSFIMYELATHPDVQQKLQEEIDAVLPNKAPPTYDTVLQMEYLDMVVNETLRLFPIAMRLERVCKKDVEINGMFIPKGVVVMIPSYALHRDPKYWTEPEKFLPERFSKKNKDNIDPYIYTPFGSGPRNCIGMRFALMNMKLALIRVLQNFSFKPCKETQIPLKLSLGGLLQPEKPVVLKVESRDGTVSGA

In the case of `COc1cc2c(cc1OC)C(=O)/C(=C/c1ccccc1)C2` [D1, (E)-2-benzylidene-5,6-dimethoxy-2,3-dihydro-1H-inden-1-one], the activity at 1 µM is reported as 88%.

Point of comparison: `COc1ccc([C@@H]2CC(=O)c3c(O)cc(O)cc3O2)cc1O` [Hesperetin], activity at 30 min, 1 µM 96.8%. Against it:
- COc1ccc(-c2cc(=O)c3c(OC)c(OC)c(OC)c(OC)c3o2)cc1OC [Nobiletin] — higher, 102%
- CC[C@@]1(O)C(=O)OCc2c1cc1n(c2=O)Cc2cc3ccccc3nc2-1 [Camptothecin] — lower, 93.8%

target: T1, CYP3A4; experiment: NFa-based screening and characterizing of hCYP3A4 inhibitors in HLMs; details: human, human liver microsomes, pH 7.4, probe NFa (4-hydroxylation to 4-HNFa)

Point of comparison: `COc1cc(O)c(C(=O)/C=C/c2ccc3ccccc3c2)c(OC)c1OC` [D9, (E)-1-(6-hydroxy-2,3,4-trimethoxyphenyl)-3-(naphthalen-2-yl)prop-2-en-1-one], activity at 30 min, 1 µM 85%. Against it:
- Cc1c(O)c(C)c2c(c1O)C(=O)C[C@@H](c1ccc(O)cc1)O2 [Farrerol] — lower, 73.5%
- COc1cc(O)c(C(=O)/C=C/c2ccc3ncccc3c2)c(OC)c1OC [D12, (E)-1-(6-hydroxy-2,3,4-trimethoxyphenyl)-3-(quinolin-6-yl)prop-2-en-1-one] — lower, 70%
- COc1cccc(C(=O)/C=C/c2ccc3nccnc3c2)c1 [D14, (E)-1-(3-methoxyphenyl)-3-(quinoxalin-6-yl)prop-2-en-1-one] — lower, 63.9%
- CC(C)=CCc1cc2c(cc1O)O[C@H](c1ccc(O)cc1)CC2=O [Bavachin] — lower, 71.6%
- O=c1c(O)c(-c2ccc(O)cc2)oc2c(O)c(O)cc(O)c12 [Herbacetin] — higher, 91.1%
- O=C1c2ccccc2C(=O)c2c(O)cccc21 [1-Hydroxy anthraquinone] — higher, 90.5%
- O=C(O)c1ccc2c(c1)C(=O)c1ccccc1C2=O [Anthraquinone-2-carboxylic acid] — higher, 98%
- COc1ccccc1C(=O)/C=C/c1ccc2ccccc2c1 [D7, (E)-1-(2-methoxyphenyl)-3-(naphthalen-2-yl)prop-2-en-1-one] — higher, 95.7%
- COc1ccc(C(=O)/C=C/c2ccc3nc(Cl)ccc3c2)c(O)c1 [D17, (E)-3-(2-chloroquinolin-6-yl)-1-(2-hydroxy-4-methoxyphenyl)prop-2-en-1-one] — lower, 83.6%
- Oc1ccc(/C=C/c2cc(O)cc(O)c2)cc1 [Resveratrol] — lower, 72.1%
- COc1cc(O)c(CC=C(C)C)c(O)c1C(=O)/C=C/c1ccc(O)cc1 [Xanthohumol] — lower, 59.9%
- COc1cc2c(cc1OC)C(=O)/C(=C/c1ccccc1C)C2 [D4, (E)-5,6-Dimethoxy-2-(2-methylbenzylidene)-2,3-dihydro-1H-inden-1-one] — lower, 58.1%
- COc1cc(O)c(C(=O)/C=C/c2ccc3nccnc3c2)c(OC)c1 [D18, (E)-1-(2-hydroxy-4,6-dimethoxyphenyl)-3-(quinoxalin-6-yl)prop-2-en-1-one] — lower, 54%
- C[C@H]1[C@H](C)CC[C@]2(C(=O)O)CC[C@]3(C)C(=CC[C@@H]4[C@@]5(C)CC[C@H](O)C(C)(C)[C@@H]5CC[C@]43C)[C@H]12 [Ursolic acid] — higher, 99.3%
- COc1ccc(-c2coc3cc(O)ccc3c2=O)cc1 [Formononetin] — higher, 98.9%
- O=c1cc(-c2ccccc2)oc2c(O)c(O)cc(O)c12 [Norwogonin] — higher, 85.3%
- O=C(CCc1ccc(O)cc1)c1c(O)cc(O)cc1O [Phloretin] — higher, 97.3%
- CC(C)=CCc1c(O)ccc(C(=O)/C=C/c2ccc(O)cc2)c1O [Isobavachalcone] — lower, 54.2%
- COc1ccc(-c2cc(=O)c3c(O)cc(O)cc3o2)cc1 [Acacetin] — lower, 49.9%
- CC(C)=CCc1cc(-c2coc3cc(O)ccc3c2=O)ccc1O [Neobavaisoflavone] — higher, 87.9%
- Nc1cccc2c1C(=O)c1ccccc1C2=O [1-Aminoanthraquinone] — lower, 62.6%
- COc1cc2c(cc1OC)C(=O)/C(=C/c1cccc(C)c1)C2 [D5, (E)-5,6-dimethoxy-2-(3-methylbenzylidene)-2,3-dihydro-1H-inden-1-one] — lower, 72.3%
- COc1cc(O)cc2c1C(=O)C[C@@H](c1ccccc1)O2 [Alpinetin] — higher, 95.7%
- O=C1c2ccc(Br)cc2C(=O)c2ccc(Br)cc21 [2,6-Dibromoanthraquinone] — higher, 85.5%
- CCc1ccc2c(c1)C(=O)c1ccccc1C2=O [2-Ethyl anthraquinone] — lower, 79.8%
- COc1cc2c(cc1OC)[C@@H](Cc1ccc(Oc3cc(C[C@@H]4c5cc(OC)c(OC)cc5CCN4C)ccc3O)cc1)N(C)CC2 [Dauricine] — higher, 92.8%
- O=C(/C=C/c1ccc2ccccc2c1)c1ccccc1O [D8, (E)-1-(2-hydroxyphenyl)-3-(naphthalen-2-yl)prop-2-en-1-one] — higher, 88%
- COc1cc2c(=O)c(-c3ccc(O)cc3)coc2cc1O [Glycitein] — higher, 104%
- O=c1c(O)c(-c2ccc(O)cc2)oc2cc(O)cc(O)c12 [Kaempferol] — lower, 67.9%
- Cc1ccc2c(c1)C(=O)c1ccccc1C2=O [2-Methyl anthraquinone] — lower, 83.6%
- O=C(/C=C/c1ccc2nccnc2c1)c1ccccc1O [D15, (E)-1-(2-hydroxyphenyl)-3-(quinoxalin-6-yl)prop-2-en-1-one] — lower, 64.5%
- O=c1c(O)c(-c2ccccc2)oc2cc(O)cc(O)c12 [Galangin] — higher, 94%
- O=C1c2cccc(O)c2C(=O)c2cccc(O)c21 [1,5-Dihydroxyanthraquinone] — higher, 99.8%
- O=C1c2ccc(O)cc2C(=O)c2ccc(O)cc21 [2,6-Dihydroxyanthraquinone] — higher, 88.8%
- COc1cc2c(cc1OC)C(=O)/C(=C/c1ccc(-c3ccccc3)cc1)C2 [D3, (E)-2-([1,1'-Biphenyl]-4-ylmethylene)-5,6-dimethoxy-2,3-dihydro-1H-inden-1-one] — lower, 75.9%
- COc1ccc(/C=C2\Cc3cc(OC)c(OC)cc3C2=O)cc1 [D6, (E)-5,6-Dimethoxy-2-(4-methoxybenzylidene)-2,3-dihydro-1H-inden-1-one] — lower, 67.8%
- CC1(C)[C@@H](O)CC[C@]2(C)[C@H]3C(=O)C=C4[C@@H]5C[C@@](C)(C(=O)O)CC[C@]5(C)CC[C@@]4(C)[C@]3(C)CC[C@@H]12 [Glycyrrhetinic acid] — lower, 66.9%
- O=C(O)c1ccc(O)c(O)c1 [Protocatechuic acid] — higher, 109%
- COc1cc2c(cc1OC)C(=O)/C(=C/c1ccco1)C2 [D2, (E)-2-(Furan-2-ylmethylene)-5,6-dimethoxy-2,3-dihydro-1H-inden-1-one] — higher, 102%
- COc1c(OC)c2occc2c2oc(=O)ccc12 [Pimpinellin] — higher, 103%
- COc1c(O)cc2occ(-c3ccc(O)cc3)c(=O)c2c1O [Tectorigenin] — higher, 95.5%
- COc1cccc(O)c1C(=O)/C=C/c1ccc2nc(Cl)ccc2c1 [D16, (E)-3-(2-chloroquinolin-6-yl)-1-(2-hydroxy-6-methoxyphenyl)prop-2-en-1-one] — higher, 100%
- COc1cc(C[C@H]2C(=O)OC[C@@H]2Cc2ccc(OC)c(OC)c2)ccc1O [Arctigenin] — higher, 103%
- COc1ccc(-c2coc3cc(O)ccc3c2=O)cc1O [Calycosin] — higher, 99.3%
- COc1cc(O)ccc1/C=C/C(=O)c1ccc(O)cc1 [Echinatin] — lower, 47.6%
- O=C1c2cccc(Cl)c2C(=O)c2c(Cl)cccc21 [1,8-Dichloroanthraquinone] — higher, 85.5%
